Experimental data as given in publication PMC8151276, “An Integrated Approach toward NanoBRET Tracers for Analysis of GPCR Ligand Engagement” (Molecules, 2021).

How the values were obtained:
Assay type in all cases: binding
[1] = target: T1, OXER1 (Homo sapiens, UniProt Q8TDS5); experiment: NanoBRET screen HiBiT-OXER1 in HEK293; details: OXER1
T1 construct: purchased Promega (in-house HiBiT-GPCR construct library, NanoBRET)
Procedure: (§1) Each tracer candidate was screened across the entire library of HiBiT-GPCR constructs using NanoBRET as the detection modality. As depicted in Figure 4A, the specificity of interactions was evaluated through decrease in BRET due to competitive displacement of a bound tracer by excess parental compound. Each tracer was analyzed for binding to each HiBiT-GPCR fusion in the absence and in the presence of competing parental compound. Briefly, HEK293 cells were transfected with HiBiT-GPCR constructs diluted into promoterless DNA to reduce expression and maximize translocation to the cell surface. Each tracer candidate was then screened at concentrations of 1 μM and 0.1 μM across cells expressing these fusions. Cells were treated for 1.5 h with tracer either alone or in the presence of 20 μM competing parental compound (i.e., control). BRET was measured upon addition of purified LgBiT and subsequent complementation with HiBiT genetically fused to a GPCR. The specificity of interactions was assessed through a decrease in BRET signal due to competitive displacement of the bound tracer. To further gauge the robustness of these interactions, the fold response over the control (i.e., BRETtracer/BRETcontrol) was calculated. We chose a 1.5-fold response, which translates to ≥7-fold signal over noise as the minimal threshold required to score an interaction as positive. […]. Below we highlight the screening results obtained for our exemplary fluorescent tracers based on Clozapine, Amitriptyline and AZD1283.
(§2) HiBiT-GPCR DNA constructs were diluted in 10 mM Tris pH 8 to a final concentration of 0.01 μg/μL, arrayed in 96-well plates and stored at −20 °C. For transfection, HEK293 cells were suspended in Opti-MEM (without phenol red) supplemented with 2% fetal bovine serum (Seradigm) and 100 units/mL penicillin–streptomycin (Gibco) at a final concentration of 220,000 cells/mL and dispensed into white 96-well plates at 90 μL/well. Subsequent transfections and screens were carried using an Agilent Bravo Automated Liquid Handling Platform. First, the 96-well HiBiT DNA arrays were diluted 25-fold in Opti-MEM (without serum or phenol red) to a final concentration of 0.0004 μg/μL and 20 μL of the diluted DNAs were transferred into new 96-well plates. Next, promoterless carrier DNA (1 μg/μL) was diluted 25-fold (0.04 μg/μL) and then dispensed into the diluted arrays at 20 μL/well. Following brief mixing, Viafect transfection reagent (Promega) diluted 16-fold into Opti-MEM was dispensed into the plates at 40 μL/well. After mixing by pipetting, plates were incubated for 10 min on the pipetting station deck. The DNA-transfection reagent complexes were then added to plates containing cells. To facilitate the screen, 10 μL of DNA-transfection reagent complexes were added in duplicates to the top 4 and bottom 4 rows, resulting in two identical 48-well arrays per plate. Plates with transfected cells were incubated for 18–20 h at 37 °C/5% CO2. A screen of each tracer across the entire library using two different concentrations requires duplicate plates of transfected cells. Depending on the number of tracers being screened, transfections can be scaled up using the same ratios. The next day, for each tracer, four 20× screening solutions in tracer dilution buffer (Promega) were prepared: two duplicates at final concentration of 20 μM and two duplicates at a final concentration of 2 μM. A competing unmodified compound was added to one of each duplicate at a final concentration of 400 μM. The four resulting solutions were diluted 4-fold in Opti-MEM without serum or phenol red to generate 5× solutions (5 µM and 0.5 µM tracer +/− 100 μM competing compound). To screen the library, a BioTek MultiFlo FX liquid dispenser was used to dispense 22.5 µL of tracer solution to the top 4 rows and 22.5 µL tracer + competing compound solution to the 4 bottom rows. Plates were briefly mixed on an orbital shaker and incubated for 1.5 h at room temperature. […]

[2] = target: T2, MLNR (Homo sapiens, UniProt O43193); experiment: NanoBRET screen HiBiT-MLNR in HEK293; details: MLNR
T2 construct: purchased Promega (in-house HiBiT-GPCR construct library, NanoBRET)
T2 sequence (O43193 whole entry): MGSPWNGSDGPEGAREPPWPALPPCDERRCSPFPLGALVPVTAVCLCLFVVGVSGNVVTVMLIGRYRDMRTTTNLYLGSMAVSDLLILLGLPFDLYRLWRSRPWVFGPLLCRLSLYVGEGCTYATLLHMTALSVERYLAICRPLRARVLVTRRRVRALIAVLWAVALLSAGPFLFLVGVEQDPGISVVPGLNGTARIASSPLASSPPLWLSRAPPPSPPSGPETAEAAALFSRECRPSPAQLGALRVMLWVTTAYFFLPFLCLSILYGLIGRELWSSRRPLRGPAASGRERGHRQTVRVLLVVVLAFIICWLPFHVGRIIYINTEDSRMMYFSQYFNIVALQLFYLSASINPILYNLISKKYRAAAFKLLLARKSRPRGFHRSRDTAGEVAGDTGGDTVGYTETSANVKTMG
Procedure: as §1, §2

[3] = target: T3, NPFFR2 (Homo sapiens, UniProt Q9Y5X5); experiment: NanoBRET screen HiBiT-NPFFR2 in HEK293; details: NPFFR2
T3 construct: purchased Promega (in-house HiBiT-GPCR construct library, NanoBRET)
T3 sequence (Q9Y5X5 whole entry): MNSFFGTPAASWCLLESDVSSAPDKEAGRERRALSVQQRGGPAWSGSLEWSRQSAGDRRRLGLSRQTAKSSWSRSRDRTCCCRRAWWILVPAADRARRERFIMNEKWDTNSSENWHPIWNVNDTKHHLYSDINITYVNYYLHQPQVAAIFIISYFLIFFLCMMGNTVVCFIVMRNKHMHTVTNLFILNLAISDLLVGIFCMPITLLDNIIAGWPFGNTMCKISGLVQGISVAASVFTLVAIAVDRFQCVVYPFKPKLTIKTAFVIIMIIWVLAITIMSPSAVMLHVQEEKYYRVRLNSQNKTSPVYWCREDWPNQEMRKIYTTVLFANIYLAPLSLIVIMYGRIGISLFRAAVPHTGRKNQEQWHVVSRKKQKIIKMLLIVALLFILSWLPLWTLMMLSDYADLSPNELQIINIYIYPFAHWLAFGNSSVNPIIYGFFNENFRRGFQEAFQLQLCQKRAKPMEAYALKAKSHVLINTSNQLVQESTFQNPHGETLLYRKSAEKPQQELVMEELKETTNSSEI
Procedure: as §1, §2

[4] = target: T4, GRPR (Homo sapiens, UniProt P30550); experiment: NanoBRET screen HiBiT-GRPR in HEK293; details: GRPR
T4 construct: purchased Promega (in-house HiBiT-GPCR construct library, NanoBRET)
T4 sequence (P30550 whole entry): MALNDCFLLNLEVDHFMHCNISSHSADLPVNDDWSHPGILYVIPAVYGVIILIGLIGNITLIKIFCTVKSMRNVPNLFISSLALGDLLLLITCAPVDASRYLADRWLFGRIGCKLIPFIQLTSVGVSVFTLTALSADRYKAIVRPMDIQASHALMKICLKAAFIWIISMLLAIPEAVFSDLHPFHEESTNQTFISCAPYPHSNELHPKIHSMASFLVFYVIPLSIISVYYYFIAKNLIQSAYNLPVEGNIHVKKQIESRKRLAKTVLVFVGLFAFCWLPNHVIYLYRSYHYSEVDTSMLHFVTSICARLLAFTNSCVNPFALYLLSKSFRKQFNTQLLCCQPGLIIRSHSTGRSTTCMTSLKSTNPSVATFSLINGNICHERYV
Procedure: as §1, §2

[5] = target: T5, ADRA2C (Homo sapiens, UniProt P18825); experiment: NanoBRET screen HiBiT-ADRA2C in HEK293; details: ADRA2C
T5 construct: purchased Promega (in-house HiBiT-GPCR construct library, NanoBRET)
T5 sequence (P18825 1-462): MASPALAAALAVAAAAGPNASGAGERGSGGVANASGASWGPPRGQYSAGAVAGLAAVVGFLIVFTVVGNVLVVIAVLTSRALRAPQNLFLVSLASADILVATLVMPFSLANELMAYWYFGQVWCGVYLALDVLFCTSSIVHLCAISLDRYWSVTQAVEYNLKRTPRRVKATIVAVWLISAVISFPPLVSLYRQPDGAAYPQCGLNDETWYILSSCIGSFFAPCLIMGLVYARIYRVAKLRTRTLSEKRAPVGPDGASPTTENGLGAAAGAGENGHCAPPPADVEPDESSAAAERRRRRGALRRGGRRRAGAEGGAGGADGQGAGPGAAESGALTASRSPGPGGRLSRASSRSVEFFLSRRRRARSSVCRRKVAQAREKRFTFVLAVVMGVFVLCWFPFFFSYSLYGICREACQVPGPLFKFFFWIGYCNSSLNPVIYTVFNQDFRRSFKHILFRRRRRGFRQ
Procedure: as §1, §2

[6] = target: T6, BDKRB2 (Homo sapiens, UniProt P30411); experiment: NanoBRET screen HiBiT-BDKRB2 in HEK293; details: BDKRB2
T6 construct: purchased Promega (in-house HiBiT-GPCR construct library, NanoBRET)
T6 sequence (P30411 1-391): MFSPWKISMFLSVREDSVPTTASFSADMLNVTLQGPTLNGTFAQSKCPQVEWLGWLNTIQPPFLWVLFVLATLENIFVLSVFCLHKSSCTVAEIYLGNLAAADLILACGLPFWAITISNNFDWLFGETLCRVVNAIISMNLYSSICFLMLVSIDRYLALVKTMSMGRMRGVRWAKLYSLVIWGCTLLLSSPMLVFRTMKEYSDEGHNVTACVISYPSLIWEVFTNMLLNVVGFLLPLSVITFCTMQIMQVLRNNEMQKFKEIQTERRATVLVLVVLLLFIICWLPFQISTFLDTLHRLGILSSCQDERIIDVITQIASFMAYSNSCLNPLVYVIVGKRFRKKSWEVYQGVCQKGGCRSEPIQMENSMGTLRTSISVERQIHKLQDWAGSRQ
Procedure: as §1, §2

T1 sequence (Q8TDS5 whole entry): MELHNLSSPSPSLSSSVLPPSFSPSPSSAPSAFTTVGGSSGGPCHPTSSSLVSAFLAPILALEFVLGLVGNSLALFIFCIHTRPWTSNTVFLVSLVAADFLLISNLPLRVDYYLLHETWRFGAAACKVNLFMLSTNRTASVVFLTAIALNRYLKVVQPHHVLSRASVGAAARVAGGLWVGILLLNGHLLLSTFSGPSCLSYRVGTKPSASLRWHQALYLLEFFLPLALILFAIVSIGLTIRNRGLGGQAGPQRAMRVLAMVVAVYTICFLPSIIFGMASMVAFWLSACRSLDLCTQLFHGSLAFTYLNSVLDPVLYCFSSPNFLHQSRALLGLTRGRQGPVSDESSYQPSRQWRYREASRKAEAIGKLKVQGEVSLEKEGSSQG

| Compound | NanoBRET Fold Response ([1]; 0.1μM tracer) | NanoBRET Fold Response ([1]; 1μM tracer) | NanoBRET Fold Response ([2]; 0.1μM tracer) | NanoBRET Fold Response ([2]; 1μM tracer) | NanoBRET Fold Response ([3]; 0.1μM tracer) | NanoBRET Fold Response ([3]; 1μM tracer) | NanoBRET Fold Response ([4]; 0.1μM tracer) | NanoBRET Fold Response ([4]; 1μM tracer) | NanoBRET Fold Response ([1]; tracer 0.1μM) | NanoBRET Fold Response ([1]; tracer 1μM) | NanoBRET Fold Response ([2]; tracer 0.1μM) | NanoBRET Fold Response ([2]; tracer 1μM) | NanoBRET Fold Response ([3]; tracer 0.1μM) | NanoBRET Fold Response ([3]; tracer 1μM) | NanoBRET Fold Response ([4]; tracer 0.1μM) | NanoBRET Fold Response ([4]; tracer 1μM) | NanoBRET Fold Response ([5]; tracer 0.1μM) | NanoBRET Fold Response ([5]; tracer 1μM) | NanoBRET Fold Response ([6]; tracer 0.1μM) | NanoBRET Fold Response ([6]; tracer 1μM) | further results |
| --- | --- | --- | --- | --- | --- | --- | --- | --- | --- | --- | --- | --- | --- | --- | --- | --- | --- | --- | --- | --- | --- |
| CN1CCN(C2=Nc3cc(Cl)ccc3N(CC(=O)NCCOCCOCCOCCOCCNC(=O)CCc3ccc4n3[B-](F)(F)[N+]3=C(c5ccc[nH]5)C=CC3=C4)c3ccccc32)CC1 [Clozapine-c-2-NB590] | 1.00 | 0.94 | 0.66 | 1.14 | 0.98 | 0.99 | 1.01 | 0.99 | – | – | – | – | – | – | – | – | – | – | – | – | NanoBRET Fold Response ([5]; 0.1μM tracer): 1.05; NanoBRET Fold Response ([5]; 1μM tracer): 1.49; NanoBRET Fold Response ([6]; 0.1μM tracer): 1.00; NanoBRET Fold Response ([6]; 1μM tracer): 1.03 |
| O=C(CCc1ccc2n1[B-](F)(F)[N+]1=C(c3ccc[nH]3)C=CC1=C2)NCc1ccc(C(=O)NCCOCCC(=O)N[C@@H]2CC[C@@]3(O)[C@H]4Cc5ccc(O)c6c5[C@@]3(CCN4CC3CC3)[C@H]2O6)cc1 [Naltrexone-3-NB590] | – | – | – | – | – | – | – | – | 0.78 | 0.74 | 1.44 | 0.69 | 1.01 | 0.95 | 0.91 | 0.92 | 0.99 | 1.05 | 1.07 | 0.94 | – |
| CC(C)N(CC[C@H](c1ccccc1)c1cc(CCNC(=O)CCOCCOCCOCCOCCNC(=O)CCc2ccc3n2[B-](F)(F)[N+]2=C(c4ccc[nH]4)C=CC2=C3)ccc1O)C(C)C [Tolterodine-2-NB590] | – | – | – | – | – | – | – | – | 0.73 | 1.09 | 0.87 | 1.15 | 0.98 | 1.06 | 0.89 | 0.91 | 0.85 | 1.04 | 0.96 | 0.95 | – |
| Cc1nc2n(c(=O)c1CCN1CCC(c3noc4cc(F)ccc34)CC1)CCCC2OC(=O)NCCOCCOCCOCCOCCNC(=O)CCc1ccc2n1[B-](F)(F)[N+]1=C(c3ccc[nH]3)C=CC1=C2 (stereo not drawn) [Risperidone-2-NB590] | – | – | – | – | – | – | – | – | 1.03 | 1.18 | 0.93 | 0.97 | 1.02 | 0.98 | 0.96 | 0.91 | 1.59 | 1.37 | 0.92 | 0.96 | – |
| O=C(CCOCCOCCOCCOCCNC(=O)CCc1ccc2n1[B-](F)(F)[N+]1=C(c3ccc[nH]3)C=CC1=C2)NCCCN1CCN(C2=Nc3cc(Cl)ccc3Nc3ccccc32)CC1 [Clozapine-a-2-NB590] | 0.95 | 1.00 | 0.94 | 1.08 | 1.00 | 0.97 | 1.11 | 1.37 | – | – | – | – | – | – | – | – | – | – | – | – | NanoBRET Fold Response ([5]; 0.1μM tracer): 1.80; NanoBRET Fold Response ([5]; 1μM tracer): 1.62; NanoBRET Fold Response ([6]; 0.1μM tracer): 1.02; NanoBRET Fold Response ([6]; 1μM tracer): 1.13 |
